Laboratory results from US12678451B2, “Cannabinoid and omega fatty acid compositions and methods of using” (GreenWay Herbal Products, LLC, priority 2019, dated 2026).

What was measured:
[1] = tested on: cytokines induced in mice by LPS; assay: Mouse LPS cytokine model, Example 6C Study 2, omega fatty acids with or without 0.5 mg/kg 1:1 CBD:CBDA; format: in vivo; details: 0.5 mg/kg (0.01 mg per mouse)
Description: (§1) A series of experiments using a mouse LPS cytokine animal model were performed. In the mouse LPS cytokine animal model, mice were injected with LPS, which induced the immune response shortly after the mice were injected with one of the potential anti-inflammatory compounds under evaluation (the “test compound”). The efficacy of the test compound was evaluated based on its ability to reduce expression levels of inflammatory cytokines that were elevated due to the immune response. The test compounds included a cannabinoid, an omega fatty acid, and a cannabinoid-omega fatty acid composition.
(§2) The mice were intraperitoneally injected with 0.1 mL of the test compound. One hour later, the mice were intraperitoneally injected with 0.1 mL of LPS in phosphate buffered saline (PBS). Four hours later, a heart puncture was performed and the blood was allowed to clot to generate serum. 0.1 mL of the serum was diluted 1:2 with PBS and stored at −80° C. The serum was then sent to a laboratory where a mouse cytokine array/chemokine array 31-plex (MD31) analysis was performed that analyzed the expression levels of the 32 cytokines/chemokines listed in Table 9, above.
(§3) For each considered test compound, the ability of the test compound to suppress each inflammatory cytokine was calculated by determining the percent suppression.
In this study, the effects of combining 1:1 CBD:CBDA with anti-inflammatory omega unsaturated fatty acids using the mouse LPS cytokine animal model were examined.
40 female C57BL/6 mice that weighed approximately 20 g each were allowed to acclimate for one week with unlimited access to food and water. On the day of the study, the mice were weighed and split into ten groups of four mice each so that the average weight of each group was as close as possible to each other. […] (9) LPS plus 37.50 mg omega fatty acids (0.1 mL injection of 375.00 mg/mL omega fatty acids diluted in MCT oil, followed 1 hour later by a 0.1 mL injection of LPS in PBS); and (10) LPS plus 37.50 mg omega fatty acids/0.01 mg 1:1 CBD:CBDA (0.1 mL injection of 375.00 mg/mL omega fatty acids/0.1 mg/mL 1:1 CBD:CBDA diluted in MCT oil, followed 1 hour later by a 0.1 mL injection of LPS in PBS).
Because the purpose of this experiment was to evaluate the effectiveness of combining 1:1 CBD:CBDA and the anti-inflammatory omega fatty acids, only cytokines that could be suppressed by one of the anti-inflammatory agents used in this study were considered.

[2] = tested on: cytokines induced in mice by LPS; assay: Mouse LPS cytokine model, Example 6A Study 3, 1:1 CBD:CBDA in MCT oil; format: in vivo; details: 0.5 mg/kg
Description: as §1, §2, §3
32 female C57BL/6 mice that weighed approximately 20 g each were allowed to acclimate for one week with unlimited access to food and water. On the day of the study, the mice were weighed and split into eight groups of four mice each so that the average weight of each group was as close as possible to each other.
The 1:1 CBD:CBDA test compounds were dosed at 5 mg/kg or 0.1 mg per 20 g mouse, 1.67 mg/kg or 0.033 mg per 20 g mouse, 0.5 mg/kg or 0.01 mg per 20 g mouse, 0.167 mg/kg or 0.0033 mg per 20 g mouse and 0.05 mg/kg or 0.001 mg per 20 g mouse. The test compounds were prepared as 1 mg/mL, 0.33 mg/mL, 0.1 mg/mL, 0.033 mg/mL and 0.01 mg/mL solutions in MCT oil for a 0.1 mL injection. […] The LPS was dosed at 0.1 mg/kg or 0.002 mg per 20 g mouse. The LPS was prepared as a 0.02 mg/mL solution in PBS for a 0.1 mL injection.

[3] = tested on: cytokine levels in differentiated THP-1 cells treated with LPS; assay: THP-1 human cellular LPS cytokine assay, three independent experiments, total averaged suppression; details: Homo sapiens, THP-1, 4 h, read-out: % Cytokine Suppression (total averaged)
Description: Cells were seeded onto 24-, or 12-well plates and incubated for 48 hours to 72 hours to allow for differentiation. […] Supernatants were collected for quantification of human cytokine levels to assess the cytokine response. Cells remaining after the supernatant collection were tested to ensure they had at least 90% viability as determined by Alamar Blue assays. To conduct the Alamar Blue assays, supernatants were replaced with culture medium containing 1× Alamar Blue reagent and incubated overnight. Cell viability was assessed by measuring relative fluorescent units (RFU) on the SpectraMax M2e microplate reader (Molecular Devices Inc., Sunnyvale, Calif., USA) at Excitation 560 nm and Emission 590 nm. Controls included untreated cells with DMSO at the same concentration as the treated cells, LPS stimulated cells with DMSO at the same concentration as the treated cells and LPS stimulated cell with the various treatments. The levels of 42 of the most common human cytokines (Eve Technologies, Calgary, Canada Table 6) were determined by multi-plex analysis.
For this reason, the level of cytokine suppression was determined for each cytokine by each cannabinoid that was tested and the total averaged suppression for each cannabinoid was determined by dividing the total suppression by the number of the cytokines that were analyzed.

[4] = tested on: cytokine levels in differentiated THP-1 cells treated with LPS; assay: THP-1 human cellular LPS cytokine assay, four independent experiments, per cytokine; format: cell-based; details: LPS 20 ng/mL

With C[C@@H]1C[C@H]2[C@@H]3CCC4=CC(=O)C=C[C@]4(C)[C@@]3(F)[C@@H](O)C[C@]2(C)[C@@]1(O)C(=O)CO [Dexamethasone, dexamethasone] the “AVERAGE SUPPRESSION” value [1] was 46.54%, the IFNγ suppression [1] was 70.28% and the IL-6 suppression [1] was 76.63%. For the same compound, the IL-7 suppression [1] was 31.25%, the IL-10 suppression [1] was 24.07% and the “IL-12β p40 suppression” value [1] was 56.90%. The IL-15 suppression [1] was 42.45%, the IL-17 suppression [1] was 64.04% and the IP-10 suppression [1] was 44.62%. For the same compound, the KC suppression [1] was 79.04%, the LIF suppression [1] was 51.34% and the MCP-1 suppression [1] was 57.38%. The MIG suppression [1] was 20.57%, the MIP-1α suppression [1] was 59.54% and the MIP-1β suppression [1] was 27.89%. For the same compound, the RANTES suppression [1] was 46.25%, the TNF-α suppression [1] was 61.44% and the “AVERAGE SUPPRESSION” value [2] was 34.65%. It also gave an Eotaxin suppression [2] of 55.51%, an IFNγ suppression [2] of 14.14% and an IL-1β suppression [2] of 61.12%. The IL-2 suppression [2] was −15.63%, the IL-6 suppression [2] was 78.65% and the IL-7 suppression [2] was 12.53%. For the same compound, the IL-9 suppression [2] was 5.23%, the IL-10 suppression [2] was 46.83% and the “IL-12 p70 suppression” value [2] was −46.46%. For the same compound, the “IL-12β p40 suppression” value [2] was 29.69%, the IL-13 suppression [2] was 21.00% and the IL-17 suppression [2] was 53.81%. The IP-10 suppression [2] was 38.48%, the KC suppression [2] was 86.96% and the LIF suppression [2] was 35.14%. The MCP-1 suppression [2] was 69.72%, the MIG suppression [2] was 37.08% and the MIP-1α suppression [2] was 48.38%. It also gave an MIP-1β suppression [2] of 32.24%, an MIP-2 suppression [2] of 41.28% and an RANTES suppression [2] of 32.46%. It also gave a TNF-α suppression [2] of 53.09%, a VEGF suppression [2] of 66.07% and an inhibition at 2 µM [3] of 51%. It also gave an EGF suppression ([4]; 2 µM) of 0.74%, an FGF-β suppression ([4]; 2 µM) of −18.23% and a Flt-3L suppression ([4]; 2 µM) of 57.45%. The IFNγ suppression ([4]; 2 µM) was 56.19%, the IL-1α suppression ([4]; 2 µM) was 77.5% and the IL-1β suppression ([4]; 2 µM) was 67.84%. For the same compound, the IL-4 suppression ([4]; 2 µM) was 56.32%, the IL-6 suppression ([4]; 2 µM) was 90.56% and the IL-7 suppression ([4]; 2 µM) was 64.36%. The IL-10 suppression ([4]; 2 µM) was 74.07%, the “IL-12 p70 suppression” value ([4]; 2 µM) was 1.37% and the IL-15 suppression ([4]; 2 µM) was 29.2%. The IL-18 suppression ([4]; 2 µM) was −15.38%, the IP-10 suppression ([4]; 2 µM) was 64.85% and the MCP-1 suppression ([4]; 2 µM) was 83.18%. The MIP-1β suppression ([4]; 2 µM) was 73.58%, the TNFα suppression ([4]; 2 µM) was 45.33% and the TNFβ suppression ([4]; 2 µM) was 72.69%. The Average cytokine suppression [4] was 50.17%.
